Measurements as given in patent US6407094B1, “Glutamate receptor antagonists” (Hoffmann-la Roche Inc., priority 1999, dated 2002).

SMILES	melting point
Cc1cc2c(cc1C#Cc1ccccc1)NC(=O)CC(c1cccc(C#N)c1)=N2 [Example 4, 3-(8-Methyl-4-oxo-7-phenylethynyl-4,5-dihydro-3H-benzo[b][1,4]diazepin-2-yl)-benzonitrile]	237 to 239 °C (dec.)
CN1CCN(c2cc3c(cc2C#Cc2ccccc2)NC(=O)CC(c2cccc(C#N)c2)=N3)CC1 [Example 5, 3-[8-(4-Methyl-piperazin-1-yl)-4-oxo-7-phenylethynyl-4,5-dihydro-3H-benzo[b][1,4]diazepin-2-yl]-benzonitrile]	222 to 224 °C (dec.)
N#Cc1cccc(C2=Nc3cc(N4CCS(=O)(=O)CC4)c(C#Cc4ccccc4)cc3NC(=O)C2)c1 [Example 6, 3-[8-(1,1-Dioxo-thiomorpholin-4-yl)-4-oxo-7-phenylethynyl-4,5-dihydro-3H-benzo[b][1,4]diazepin-2-yl]-benzonitrile]	> 250 °C (dec.)
N#Cc1cccc(C2=Nc3cc(N4CCC5(CC4)OCCO5)c(C#Cc4ccccc4)cc3NC(=O)C2)c1 [Example 9, 3-[8-(1,4-Dioxa-8-aza-spiro[4.5]dec-8-yl)-4-oxo-7-phenylethynyl-4,5-dihydro-3H-benzo[b][1,4]diazepin-2-yl]-benzonitrile]	239 to 243 °C (dec.)
CN(C)CCSc1cc2c(cc1C#Cc1ccccc1)NC(=O)CC(c1cccc(C#N)c1)=N2 [Example 11, 3-[8-(2-Dimethylamino-ethylsulfanyl)-4-oxo-7-phenylethynyl-4,5-dihydro-3H-benzo[b][1,4]diazepin-2-yl]-benzonitrile]	197 °C (dec.)
N#Cc1cccc(C2=Nc3cc(SCC(=O)O)c(C#Cc4ccccc4)cc3NC(=O)C2)c1 [Example 13, [4-(3-Cyano-phenyl)-2-oxo-8-phenylethynyl-2,3-dihydro-1H-benzo[b][1,4]diazepin-7-ylsulfanyl]-acetic acid]	202 °C (dec.)
COC(=O)Cc1cc2c(cc1C#Cc1ccccc1)NC(=O)CC(c1cccc(C#N)c1)=N2 [Example 14, [4-(3-Cyano-phenyl)-2-oxo-8-phenylethynyl-2,3-dihydro-1H-benzo[b][1,4]diazepin-7-yl]-acetic acid methyl ester]	236 °C (dec.)
COCCOc1cc2c(cc1C#Cc1ccccc1)NC(=O)CC(c1cccc(C#N)c1)=N2 [Example 18, 3-[8-(2-Methoxy-ethoxy)-4-oxo-7-phenylethynyl-4,5-dihydro-3H-benzo[b][1,4]diazepin-2-yl]-benzonitrile]	174 to 176 °C
COC(=O)c1cc2c(cc1C#Cc1ccccc1)NC(=O)CC(c1cccc(C#N)c1)=N2 [Example 19, 4-(3-Cyano-phenyl)-2-oxo-8-phenylethynyl-2,3-dihydro-1H-benzo[b][1,4]diazepine-7-carboxylic acid methyl ester]	> 250 °C
N#Cc1cccc(C2=Nc3cc(OCC(=O)O)c(C#Cc4ccccc4)cc3NC(=O)C2)c1 [Example 22, [4-(3-Cyano-phenyl)-2-oxo-8-phenylethynyl-2,3-dihydro-1H-benzo[b][1,4]diazepin-7-yloxy]-acetic acid]	257 °C (dec.)
N#Cc1cccc(C2=Nc3cc(OCC(O)CO)c(C#Cc4ccccc4)cc3NC(=O)C2)c1 (centres unmarked) [Example 24, 3-[8-(2,3-Dihydroxy-propoxy)-4-oxo-7-phenylethynyl-4,5-dihydro-3H-benzo[b][1,4]diazepin-2-yl]-benzonitrile]	230 to 234 °C (dec.)
CCOCc1cc2c(cc1C#Cc1ccccc1)NC(=O)CC(c1cccc(C#N)c1)=N2 [Example 29, 3-(8-Ethoxymethyl-4-oxo-7-phenylethynyl-4,5-dihydro-3H-benzo [b][1,4]diazepin-2-yl)-benzonitrile]	229 °C
CC(C)(C)C(=O)OCc1cc2c(cc1C#Cc1ccccc1)NC(=O)CC(c1cccc(C#N)c1)=N2 [Example 30, 2,2-Dimethyl-propionic acid 4-(3-cyano-phenyl)-2-oxo-8-phenylethynyl-2,3-dihydro-1H-benzo[b][1,4]diazepin-7-ylmethyl ester]	218 °C
N#Cc1cccc(C2=Nc3cc(CO)c(C#Cc4ccccc4)cc3NC(=O)C2)c1 [Example 31, 3-(8-Hydroxymethyl-4-oxo-7-phenylethynyl-4,5-dihydro-3H-benzo[b][1,4]diazepin-2-yl)-benzonitrile]	> 255 °C
COC1CCN(c2cc3c(cc2C#Cc2ccccc2)NC(=O)CC(c2cccc(-n4ccnc4)c2)=N3)CC1 [Example 33, 4-(3-Imidazol-1-yl-phenyl)-7-(4-methoxy-piperidin-1-yl)-8-phenylethynyl-1,3-dihydro-benzo[b][1,4]diazepin-2-one]	222 °C
COC1CCN(c2cc3c(cc2C#Cc2ccccc2)NC(=O)CC(c2cccc(C#N)c2)=N3)CC1 [Example 34, 3-[8-(4-Methoxy-piperidin-1-yl)-4-oxo-7-phenylethynyl-4,5-dihydro-3H-benzo[b][1,4]diazepin-2-yl]-benzonitrile]	250 to 251 °C
N#CCOc1cc2c(cc1C#Cc1ccccc1)NC(=O)CC(c1cccc(-n3ccnc3)c1)=N2 [Example 35, [4-(3-Imidazol-1-yl-phenyl)-2-oxo-8-phenylethynyl-2,3-dihydro-1H-benzo[b][1,4]diazepin-7-yloxy]-acetonitrile]	214 °C
N#CCOc1cc2c(cc1C#Cc1ccccc1)NC(=O)CC(c1cccc(C#N)c1)=N2 [Example 36, 3-(8-Cyanomethoxy-4-oxo-7-phenylethynyl-4,5-dihydro-3H-benzo[b][1,4]diazepin-2-yl)-benzonitrile]	212 °C
CN(CCO)c1cc2c(cc1C#Cc1ccc(F)cc1)NC(=O)CC(c1cccc(-n3ccnc3)c1)=N2 [Example 38, 8-(4-Fluoro-phenylethynyl)-7-[(2-hydroxy-ethyl)-methyl-amino]-4-(3-imidazol-1-yl-phenyl)-1,3-dihydro-benzo[b][1,4]diazepin-2-one]	217 °C (dec.)
O=C1CCN(c2cc3c(cc2C#Cc2ccccc2)NC(=O)CC(c2cccc(-n4ccnc4)c2)=N3)CC1 [Example 39, 4-(3-Imidazol-1-yl-phenyl)-7-(4-oxo-piperidin-1-yl)-8-phenylethynyl-1,3-dihydro-benzo[b][1,4]diazepin-2-one]	231 °C (dec.)
CC(C)(C)NC(=O)COc1cc2c(cc1C#Cc1ccccc1)NC(=O)CC(c1cccc(C#N)c1)=N2 [Example 40, N-tert.-Butyl-2-[4-(3-cyano-phenyl)-2-oxo-8-phenylethynyl-2,3-dihydro-1H-benzo[b][1,4]diazepin-7-yloxy]-acetamide]	> 250 °C
CONC(=O)COc1cc2c(cc1C#Cc1ccccc1)NC(=O)CC(c1cccc(C#N)c1)=N2 [Example 41, 2-[4-(3-Cyano-phenyl)-2-oxo-8-phenylethynyl-2,3-dihydro-1H-benzo[b][1,4]diazepin-7-yloxy]-N-methoxy-acetamide]	> 250 °C
O=C1CC(c2cccc(-n3ccnc3)c2)=Nc2cc(N3CCC(O)CC3)c(-c3ccc(F)cc3)cc2N1 [Example 43, 8-(4-Fluoro-phenyl)-7-(4-hydroxy-piperidin-1-yl)-4-(3-imidazol-1-yl-phenyl)-1,3-dihydro-benzo[b][1,4]diazepin-2-one]	238 to 240 °C
